# Assay results taken from patent US20240156856A1, “NOVEL APPLICATIONS OF HYALURONIC ACID FOR TREATMENT OF PAIN AND PRURITIS” (THE REGENTS OF THE UNIVERSITY OF CALIFORNIA, priority 2022, published 2024).
# Columns and labels:
# [1] = tested on: rats with bortezomib CIPN; test: Bortezomib CIPN mechanical hyperalgesia, Randall-Selitto paw-withdrawal test; assay type: in vivo, Sprague-Dawley rats; conditions: male rats; bortezomib 0.2 mg/kg i.v., 4 doses, day 7
# Protocol: (§1) Experimental animals. Experiments were performed on 220-400 g male and female Sprague-Dawley rats, purchased from Charles River Laboratories (Hollister, CA, USA), housed three per cage, under a 12-hour light/dark cycle, in a temperature- and humidity-controlled animal care facility at the University of California, San Francisco. Food and water were available ad libitum. Experimental protocols were approved by the University of California, San Francisco, Institutional Animal Care and Use Committee, and adhered to the National Institutes of Health Guidelines for the care and use of laboratory animals.
# (§2) Measurement of nociceptive threshold. Mechanical nociceptive threshold was quantified with an Ugo Basile Analgesymeter (Stoelting, Wood Dale, IL, USA), used to perform the Randall-Selitto paw-withdrawal test [61; 68; 69]. This device uses a dome-shaped plinth to apply a mechanical force that increases linearly with time, to the dorsum of a rat's hindpaw. To perform the Randall-Selitto paw-withdrawal test, rats were placed in cylindrical acrylic restrainers with lateral ports that allow access to the hind paw, as described previously. Rats were acclimatized to the testing procedure by placing them in restrainers for 1 h per day for 3 consecutive daily training sessions, and for 30-40 min prior to experiments.
# Mechanical nociceptive threshold is defined as the force, in grams, applied by the plinth to the dorsum of the hindpaw, at which a rat withdraws its paw from the stimulus. Baseline paw-withdrawal threshold is defined as the mean of three readings taken before administration of test agents. To minimize experimenter bias, individuals conducting experiments were blinded to experimental treatments. Each experiment was performed on a different group of rats. Data are presented as mechanical nociceptive threshold, in grams (g) or percentage change from preintervention baseline. […]
# [2] = tested on: rats with oxaliplatin CIPN; test: Oxaliplatin CIPN mechanical hyperalgesia, Randall-Selitto paw-withdrawal test; assay type: in vivo, Sprague-Dawley rats; conditions: for CIPN hyperalgesia, effect of hyaluronan molecular weight range: male rats with oxaliplatin CIPN, topical, combined with DMSO
# Protocol: as §1, §2
# (§3) Mechanical nociceptive threshold is defined as the force, in grams, applied by the plinth to the dorsum of the hindpaw, at which a rat withdraws its paw from the stimulus. Baseline paw-withdrawal threshold is defined as the mean of three readings taken before administration of test agents. To minimize experimenter bias, individuals conducting experiments were blinded to experimental treatments. Each experiment was performed on a different group of rats. Data are presented as mechanical nociceptive threshold, in grams (g) or percentage change from preintervention baseline.
# (§4) Hyaluronans were initially dissolved in distilled water (dH2O) at a concentration of 10 μg/μL, stock solution, and further diluted by adding DMSO with three final concentrations of hyaluronan (1, 2 and 4 μg/μL), protamine or terpene; unless otherwise stated, the final concentration of DMSO was 75%. The DMSO vehicle was 75% DMSO in 0.9% saline. In one experiment, 500-1200 kDa hyaluronan was administered topically in 0.9% saline vehicle. PGE2 was dissolved in 0.9% saline at the same final concentration that we previously injected intradermally (100 ng/5 μL). In the experiments in which hyaluronan was dissolved in protamine or terpene vehicle, protamine was first dissolved in distilled water (dH2O) to a concentration of 5 μg/μ1, stock solution of hyaluronan was combined with protamine at the final concentration of 2 μg/μ1, in a volume of 3 μl, for topical administration; terpene was first dissolved in dH2O at the concentration of 2 μg/μ1, then hyaluronan was dissolved in stock solution of terpene to its final concentration of 2 μg/μ1, in a volume of 3 μl, for topical administration).
# Oxaliplatin CIPN: Oxaliplatin was freshly dissolved in 0.9% saline at a concentration of 2 mg/mL just prior to its tail vein intravenous (i.v.) administration (1 mL/kg), to rats briefly anesthetized with isoflurane (2.5% in O2).
# Hyaluronans (30 μL) were administered topically on the dorsum of the hind paw, dispensed from a P200 pipette (Gilson, Middleton, WI, USA) with a plastic pipette tip and then spread manually. […]
# (§5) Before use, ODNs were reconstituted in nuclease-free 0.9% saline and then administered by the intrathecal (i.t.) route. As described previously, rats were anesthetized with isoflurane (2.5% in O2) and 120 μg of ODN, in a volume of 20 μL, injected i.t., using a syringe ([…]) attached to a 29-gauge hypodermic needle that was inserted into the subarachnoid space, between the L4 and L5 vertebrae. The i.t. site of the injectate was confirmed by a sudden flick of the rat's tail, a reflex evoked by subarachnoid space access and bolus i.t. injection. […]
# [3] = tested on: PGE2 hyperalgesia in male and female rats; test: PGE2-induced mechanical hyperalgesia, Randall-Selitto paw-withdrawal test; assay type: in vivo, Sprague-Dawley rats; conditions: 100 ng intradermally, dorsum of hind paw, male and female rats
# Protocol: as §1, §2, §3
# Hyaluronans were initially dissolved in distilled water (dH2O) at a concentration of 10 μg/μL, stock solution, and further diluted by adding DMSO with three final concentrations of hyaluronan (1, 2 and 4 μg/μL), protamine or terpene; unless otherwise stated, the final concentration of DMSO was 75%. The DMSO vehicle was 75% DMSO in 0.9% saline. In one experiment, 500-1200 kDa hyaluronan was administered topically in 0.9% saline vehicle. PGE2 was dissolved in 0.9% saline at the same final concentration that we previously injected intradermally (100 ng/5 μL). […]
# [4] = tested on: rats with paclitaxel CIPN; test: Paclitaxel CIPN mechanical hyperalgesia, Randall-Selitto paw-withdrawal test; assay type: in vivo, Sprague-Dawley rats; conditions: male rats; paclitaxel 1 mg/kg i.p., 4 doses, day 7
# Protocol: as §1, §2, §3, §4
# Paclitaxel CIPN: Paclitaxel was dissolved in Cremophor EL and ethanol (1:1) [1; 6; 20; 22] and diluted in 0.9% saline to a concentration of 1 mg/mL, just prior to its intraperitoneal (i.p.) administration (1 mg/kg, i.p.) [19; 42] to rats briefly anesthetized with isoflurane (2.5% in O2), every other day for a total of 4 doses.
# Hyaluronans (30 μL) were administered topically on the dorsum of the hind paw, dispensed from a P200 pipette (Gilson, Middleton, WI, USA) with a plastic pipette tip and then spread manually.
# Antisense oligodeoxynucleotides (ODNs).
# as §5, with “vertebrae.” for “vertebrae. The i.t. site of the injectate was confirmed by a sudden flick of the rat's tail, a reflex evoked by subarachnoid space access and bolus i.t. injection.”
# [5] = tested on: 5-HT-induced scratching behavior in rats; test: 5-HT-induced scratching (itch) behavior; assay type: in vivo; conditions: topical 100 μg in 50 μl 75% DMSO in water, 30 and 5 mins before 5-HT 200 μg i.d.
# Protocol: Topical hyaluronan attenuates itch behavior in rats. Intradermal administration of serotonin (5-HT) elicited acute scratching behavior, using the method of Nojima and Carstens {Nojima and Carstens, 2003, #99335; PMID: 12814838}. Rats were acclimated to a testing chamber for 30 min, and then briefly anesthetized with 2% isoflurane, during which the fur over the nape of the neck was shaved, and 5-HT (200 μg in 10 μl 0.9% saline vehicle) injected with a 30 gauge needle. In the topical hyaluronan group, hyaluronan (100 μg in 50 μl 75% DMSO in water vehicle) was applied to the skin 30 mins and again 5 mins before administration of 5-HT. Rats were placed back into testing chambers and their behavior video recorded for 40 min. Number of hind paw scratches directed at the injection site were counted by watching video playback at half normal speed, and total number of scratches in 2-min intervals recorded. Rats were treated with 5-HT alone and topical hyaluronan with 5-HT, with 4 days between experimental sessions, allowing for use of paired t-tests to compare data. Data are presented as cumulative number of scratches (FIG. 9A), and as total scratches over the 40-min observation period (FIG. 9B). […] See also, FIG. 10, which includes additional data showing that topical hyaluronan attenuates 5-HT-induced scratching behavior. […] Data are presented as cumulative number of scratches.
# rats = conditions: previously shown; cited from earlier work
molecule,measurement,setting,value
"CC(C)C[C@H](NC(=O)[C@H](Cc1ccccc1)NC(=O)c1cnccn1)B(O)O [Bortezomib, bortezomib, reference compound]",mechanical nociceptive threshold after chemotherapy,[1],decreased mechanical nociceptive threshold
"O=C1[O][Pt]2([NH][C@@H]3CCCC[C@H]3[NH]2)[O]C1=O [Oxaliplatin, oxaliplatin, reference compound]",mechanical nociceptive threshold after chemotherapy,"[2]; male rats, oxaliplatin 2 mg/kg i.v., day 7",decreased mechanical nociceptive threshold
"CCCCC[C@H](O)/C=C/[C@H]1[C@H](O)CC(=O)[C@@H]1C/C=C\CCCC(=O)O [PGE2, prostaglandin E2, reference compound]",mechanical hyperalgesia after intradermal PGE2,[3],produced robust mechanical hyperalgesia
"CC(=O)O[C@H]1C(=O)[C@@]2(C)[C@H]([C@H](OC(=O)c3ccccc3)[C@]3(O)C[C@H](OC(=O)[C@H](O)[C@@H](NC(=O)c4ccccc4)c4ccccc4)C(C)=C1C3(C)C)[C@]1(OC(C)=O)CO[C@@H]1C[C@@H]2O [Paclitaxel, paclitaxel, reference compound]",mechanical nociceptive threshold after chemotherapy,[4],decreased mechanical nociceptive threshold
hyaluronan,number of 5-HT scratches over 40 min,[5],significantly attenuated the number of 5-HT scratches
hyaluronan [70-120 kDa hyaluronan],"CIPN hyperalgesia, effect of hyaluronan molecular weight range",[2],did not attenuate CIPN hyperalgesia
hyaluronan [150-300 kDa hyaluronan],"CIPN hyperalgesia, effect of hyaluronan molecular weight range",[2],"produced robust anti-hyperalgesia, of similar magnitude and duration"
hyaluronan [300-500 kDa hyaluronan],"CIPN hyperalgesia, effect of hyaluronan molecular weight range",[2],"produced robust anti-hyperalgesia, of similar magnitude and duration"
hyaluronan [1500-1750 kDa hyaluronan],"CIPN hyperalgesia, effect of hyaluronan molecular weight range",[2],"produced robust anti-hyperalgesia, of similar magnitude and duration"
"hyaluronan [low molecular weight hyaluronan, reference compound]",nociceptive effect of intradermal injection,rats,induced hyperalgesia
